Key:
[1] = Transport across Caco-2 cell monolayers; type: in vitro ADME, human; details: human; for Papp A→B at 30 min, 50 μg/mL / Papp A→B at 60 min, 50 μg/mL / Papp B→A at 30 min, 50 μg/mL / Papp B→A at 60 min, 50 μg/mL: Caco-2, 50 μg/mL; for Papp A→B at 30 min, 50 μg/mL / Papp A→B at 60 min, 50 μg/mL: apical to basolateral; for Papp B→A at 30 min, 50 μg/mL / Papp B→A at 60 min, 50 μg/mL: basolateral to apical; for Papp: Caco-2, summary of Table 1, read-out: apparent permeability coefficients (Papp), range over directions and times
Procedure: (§1) Caco-2 cells were grown as epithelial monolayers, seeded onto fibrillar collagen-coated polyethylene terephthalate (PET) Corning transwell inserts (1.12 cm^2) with a pore size of 3 μm at a density of 2.0 × 10^5 cells/insert, and incubated at 37 °C in an atmosphere of 5% CO2 and 95% relative humidity in complete DMEM. The medium was replaced every 2 days with 0.5 mL medium in the apical (AP) side and 1.5 mL in the basolateral (BL) side over a period of 21 days. The integrity of the cell monolayer was determined by measuring the TEER (transepithelial electrical resistance) using an epithelial voltohmmeter (EVOM). The TEER values for each monolayer were measured every 2 days until they exceeded 350 Ω cm^2. To ensure the integrity of the Caco-2 monolayers, the TEER values were monitored before and after the experiments.
(§2) To measure the transport of EGCG and compound 3 across the Caco-2 cell monolayer, both sides of the transwell were equilibrated for 30 min with warm Hank’s balanced salt solution (HBSS). The transport buffer containing EGCG and compound 3 was added to either the apical (0.5 mL) or the basolateral (1.5 mL) side of the insert, while the receiving compartment contained the corresponding volume of transport buffer. After incubation for 30 or 60 min, 100 μL samples were taken from the receiving chamber and immediately replenished with an equal volume of pre-warmed HBSS. The samples were acidified with an equal volume of 5% formic acid and then frozen until LC–MS analysis.
(§3) The apparent permeability coefficients (Papp) of the compounds were calculated using the following equation: Papp=dQ/dt×1/A·C0, where dQ/dt is the amount of solute transported across the Caco-2 barrier in time dt, C0 is the solute concentration in the apical compartment at time zero, and A is the cross-sectional area of the epithelium in contact with the apical solution.

NCI-H441 cells [2] = assay: Western blotting of cell cycle and apoptosis proteins; type: cell-based, human; details: NCI-H441, western blot, cDDP alone
Procedure: (§4) Samples containing equal amounts of proteins as indicated in the text were resolved by SDS polyacrylamide gel electrophoresis and transferred to PVDF membranes. The membranes were blocked with 5% BSA at room temperature for 1 h and then probed with primary antibodies overnight at 4 °C and incubated with the HRP-conjugated secondary antibodies for 1 h at room temperature. HRP was detected using the Pro-light HRP Chemiluminescent Kit (Tiangen Biotech, Beijing, China) and FluorChem E System (ProteinSimple, Santa Clara, CA, United States).

NCI-H441 xenograft = NCI-H441 xenograft model in nude mice; type: in vivo, BALB-C/nude mice; details: for tumor growth compared with the control: compound 3 200 mg/kg per day, cDDP 2 mg/kg per 2 days, i.p., nude mice
Procedure: Twenty-four male BALB-C/nude mice were purchased from the Cavens Lab Animal (Changzhou, China). The mice were subcutaneously injected in the dorsal with NCI-H441 cells (4 × 10^6/0.2 mL PBS per mouse). The mice were randomly divided into four groups, including control, compound 3, cDDP, and compound 3 plus cDDP (n = 6, per group). The mice were treated with compound 3 (200 mg/kg per day) and cDDP (2 mg/kg per 2 days) alone or in combination. All drugs were given through intra-peritoneal injection. Tumour size was measured once every 2 days with a calipre (volume mm^3 = length × width × width/2). Body weight was recorded once every 2 days. After there weeks of treatment, all mice were euthanized by cervical dislocation and the tumors were excised into formalin, and portion of the tumor fresh frozen in liquid nitrogen for further processing and analysis.
Three micrometer sections were cut, deparaffinized in xylenes, rehydrated in ethanol, and washed in phosphate-buffered saline. The antigen was retrieved at 95 °C for 20 min in 0.01 M citrate buffer (pH 6.0). Then incubated with primary antibodies overnight at 4 °C, followed by incubation with the secondary antibody at RT for 1 h. The immunostaining was performed using DAB, and counterstained with hematoxylin.

[3] = tested on: EGFR signaling pathway in NCI-H441 cells; assay: Western blotting of EGFR signaling pathway proteins; type: cell-based, human; details: NCI-H441, western blot after 12 h
Procedure: as §4

NCI-H441 cells [4] = assay: Annexin V-FITC/PI apoptosis assay by flow cytometry; type: cell-based, human; details: NCI-H441, 48 h
Procedure: Cell apoptosis was quantified using an annexin V/propidium iodide (PI) detection kit (BD Biosciences, PA, USA) and flow cytometry. Cells (5 × 10^5/well) were plated in six-well dishes and then treated with the EGCG derivatives with or without cDDP. After the treatment, the collected cells were incubated in 100 µL of binding buffer and 5 µL of FITC annexin V and 10 µL of PI were added to the suspension. The mixtures were gently vortexed and then incubated for 15 min at room temperature in the dark before performing the flow cytometry measurements (BD FACSCalibur) within 1 h.

Caco-2 cell monolayers = assay: Transport across Caco-2 cell monolayers; type: in vitro ADME, human; details: Caco-2, 50 µg/mL, A→B
Procedure: as §1, §2, §3

A549 cells = assay: MTT cell proliferation assay, A549; type: cell-based, human; details: 0-150 µM, 48 h
Procedure: (§5) The effects of the EGCG derivatives on the survival of NSCLC cells were determined using the MTT assay. A549, NCI-H441, and NCI-H1975 cells were seeded in 96-well plates (3 × 10^4 cells/well) and then treated with one of the EGCG derivatives alone (0, 30, 60, 90, 120, or 150 µM), cDDP alone (12 µM), or 12 μM cDDP plus one of the EGCG derivatives (100 µM) for 48 h. MTT was then added to the cells and the plates were incubated for a further 4 h. After removal of the culture medium, the produced MTT formazan crystals were dissolved with 150 µL DMSO and measured at 492 nm using a microplate reader. The percentage of inhibition was calculated as follows: inhibition ratio (IR, %) = (1 − OD(sample)/OD(control)) × 100%. The experiments were carried out in triplicate, and the IC50 (the concentration of drug that inhibits cell growth by 50%) values were determined.

NCI-H441 cells [5] = assay: MTT cell proliferation assay, NCI-H441; type: cell-based, human; details: 0-150 µM, 48 h
Procedure: as §5

NCI-H1975 cells = assay: MTT cell proliferation assay, NCI-H1975; type: cell-based, human; details: 0-150 µM, 48 h
Procedure: as §5

NCI-H441 cells [6] = assay: Cell cycle analysis by PI staining and flow cytometry; type: cell-based, human; details: NCI-H441, 0, 50, 100, 150 μM
Procedure: Aliquots of 5 × 10^5 cells were harvested, washed with phosphate-buffered saline (PBS), and then fixed in 70% ethanol at 4 °C overnight. After fixation, the cells were washed twice with cold PBS and stained in binding buffer containing 1 µg/mL of propidium iodide (BD Biosciences) and RNase for 0.5 h. The samples were then analyzed by flow cytometry (BD FACSCalibur).

SMILES | Papp A→B at 30 min, 50 μg/mL [1] [×10⁻⁶ cm/s] | Papp A→B at 60 min, 50 μg/mL [1] [×10⁻⁶ cm/s] | Papp B→A at 30 min, 50 μg/mL [1] [×10⁻⁶ cm/s] | Papp B→A at 60 min, 50 μg/mL [1] [×10⁻⁶ cm/s] | Papp [1] [×10⁻⁶ cm/s] | levels of PCNA, p53, p21, cyclin D1 and cyclin E (NCI-H441 cells [2]) | tumor growth compared with the control (NCI-H441 xenograft) | P-EGFR, P-AKT and P-ERK levels [3] | number of apoptotic cells compared to untreated control (NCI-H441 cells [4]) | nude mouse body weight compared with the control group (NCI-H441 xenograft; compound 3 200 mg/kg per day i.p.) | transepithelial transport rate, apical to basolateral, fold higher than EGCG (Caco-2 cell monolayers) [fold] | proliferation of A549 cells (A549 cells) | proliferation of NCI-H441 cells (NCI-H441 cells [5]) | proliferation of NCI-H1975 cells (NCI-H1975 cells) | cell cycle distribution, effect of increasing doses (NCI-H441 cells [6])
O=C(O[C@@H]1Cc2c(O)cc(O)cc2O[C@@H]1c1cc(O)c(O)c(O)c1)c1cc(O)c(O)c(O)c1 [EGCG, (−)-epigallocatechin-3-gallate] | 0.189 | 0.32 | 0.89 | 0.083 | 0.083 to 0.914 | – | – | – | – | – | – | – | – | – | –
[NH2][Pt]([NH2])([Cl])[Cl] [cDDP, cisplatin] | – | – | – | – | – | minimal effects | reduced tumor growth | – | – | – | – | – | – | – | –
O=C(O[C@@H]1Cc2c(OCc3cnnn3[C@@H]3O[C@H](CO)[C@@H](O)[C@H](O)[C@H]3O)cc(O)cc2O[C@@H]1c1cc(O)c(O)c(O)c1)c1cc(O)c(O)c(O)c1 [compound 3, (2R,3R)-7-Hydroxy-5-((1-((2R,3R,4S,5S,6R)-3,4,5-trihydroxy-6-(hydroxymethyl)tetrahydro-2H-pyran-2-yl)-1H-1,2,3-triazol-5-yl)methoxy)-2-(3,4,5-trihydroxyphenyl)chroman-3-yl 3,4,5-trihydroxybenzoate] | 0.914 | 0.41 | 0.83 | 0.39 | 0.083 to 0.914 | – | reduced tumor growth | effectively inhibited these phosphorylation proteins in a dose-dependent manner | significantly increased in a concentration-dependent manner | did not reduce the nude mouse body weight | 4.9 | the same effect was not observed | substantial dose-dependent growth inhibition | the same effect was not observed | increased the proportion of cells in the S phase in a dose-dependent manner

Reference: paper PMC6791019, “(−)-Epigallocatechin-3-gallate derivatives combined with cisplatin exhibit synergistic inhibitory effects on non-small-cell lung cancer cells” (Cancer Cell International, 2019)
